Test results as given in patent publication US4735953A, “Pharmaceutical preparation for learning stimulation and memory improvement” (priority 1986, dated 1988).

What was measured:
rats = test: Teaching of rats in a T-shaped labyrinth with positive meal support; type: in vivo, rat
Source text: In the second series of experiments the preparation according to the present invention was studied for the effect on teaching of rats in a T-shaped labyrinth in one compartment of which a feedbox with meal was provided. Rats deprived of meals during the day were placed into the starting compartment of the labyrinth and taught to find the feed-box in the proper compartment of the labyrinth. The response time, the number of unrealized reactions, the latent period, and the number of errors were noted.
Similar results were obtained in experiments in a T-shaped labyrinth with the use of a positive meal support.

[1] = system: rabbit's brain hemispheres; test: Amplitude of induced potential in brain hemispheres (acoustic irritation); type: in vivo; conditions: rabbits
Experimental: In the third series of experiments the effect of the preparation according to the present invention on the functional brain asymmetry was studied. The experiments were carried out on rabbits with electrodes implanted in the brain. The electrodes under nembutal narcosis (40 mg/kg) were implanted strictly symmetrically into the bearing zone of the temporal cortex of the right and left hemispheres on its lateral surface, whereas the indifferent electrode was secured to the nasal bones of a rabbit's skull. The acoustic irritation was applied through earphones. As the acoustic irritation a sound click caused by a square-shaped pulse from an electronic stimulator with a frequency of 0.1-0.2 Hz was used; the click intensity was adjusted within the range of from 5 to 80 Db. The amplification of the taken-off biopotentials was effected on an electroencephalograph; the induced potentials were obtained by means of an analyzer. 100 experiments on 20 animals were thus conducted; the interval between experiments on one animal was 7 days. The amplitude and form of the induced potential were determined. The asymmetry factor (Kas) was calculated by the formula: [formula] Ar --amplitude of the induced potential of the […] hemisphere, μV;
A1 --amplitude of the induced potential of the left hemisphere.
The test preparations were administered hypodermally in the form of 0.5-1.5% aqueous solutions 20 minutes before the beginning of the measurements.

[2] = system: cerebral cortex of rabbits; test: Asymmetry factor by induced potential in the hearing zone of the cerebral cortex; type: in vivo, rabbit
Summary of the method: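 Rabbits under nembutal (40 mg/kg) got symmetric electrodes in left and right temporal auditory cortex; clicks at 0.1-0.2 Hz, 5-80 dB via earphones evoked potentials. Preparations given subcutaneously as 0.5-1.5% aqueous solutions 20 min before recording; amplitudes measured and asymmetry factor computed from both hemispheres.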

[3] = system: rats persistently choosing the left side of the labyrinth; test: Lateralization of free behaviour in the T-shaped labyrinth; type: in vivo, rat; conditions: for Number of runs to the right, Series I / Number of runs to the right, Series II / Number of runs to the right, Series III: 20 animals
Experimental: Also studied was the change of lateralization of free behaviour of rats in the T-shaped labyrinth. In the experiment rats of both sexes with a mass of 180-230 g were used. Preliminary experiments were carried out on 120 animals, then a group of 40 animals was chosen which during 20 days selected the left corridor in the first attempt of running through the labyrinth.
The data on the capacity of the preparation according to the present invention to enhance the domination of one (left) brain hemisphere have been supported in behaviour experiments on rats where the change in lateralization of a free behaviour of rats in a T-shaped labyrinth was studied.

[4] = system: learning ability of mice in a shuttle chamber; test: Learning ability of mice in a shuttle chamber; type: in vivo, mouse
mice = test: Acute toxicity, mice; type: in vivo, mouse; conditions: single intraperitoneal
Experimental: The preparation according to the present invention was also tested for acute and chronic toxicity.

dogs = test: Chronic toxicity, dogs; type: in vivo, dog; conditions: hypodermal, 6 months
Source text: The chronic toxicity of the preparation was studied on three species of animals (rats, dogs, rabbits). In chronic tests on the above-mentioned animals the effect of a long-time hypodermal administration of the preparation according to the present invention on the general state and mass of animals, hemogram, cardio-vascular system, breathing central nervous system, functional state of kidneys, liver, thyroid gland was studied. […] The doses of the preparation employed in the experiments surpassed the required dose for a human being (per kilogram of bodymass) by 5-10 times.

[5] = Carcinogenic, mutagenic, teratogenic, embryotoxic effect
[6] = mice, hypodermally 1 mg/kg, 1st day
[7] = mice, hypodermally 1 mg/kg, 12 day (retention)
[8] = mice, hypodermally 3 mg/kg, 1st day
[9] = mice, hypodermally 3 mg/kg, 12 day (retention)
[10] = mice, hypodermally 10 mg/kg, 1st day
[11] = mice, hypodermally 10 mg/kg, 12 day (retention)
[12] = mice, per os 0.3 mg/kg, 1st day
[13] = mice, per os 0.3 mg/kg, 12 day (retention)
[14] = mice, per os 1 mg/kg, 12 day (retention)
[15] = mice, per os 3 mg/kg, 12 day (retention)

Cl.Nc1c2c(nc3c1CCC3)CCCC2.O [preparation of the invention, 9-amino-2,3,5,6,7,8-hexahydro-1H-cyclopenta(b)quinoline monohydrate hydrochloride]
number of response failures as compared to the initial level on the first day of teaching (rats; rats, 5 mg/kg, by the fourth day of teaching, control 60-70%): 40% | number of response failures (in words) (rats; rats, 1, 5 and 10 mg/kg): reduced number of response failures | amplitude of induced potentials (in words) [1]: increased greater in the left hemisphere | Change of amplitude of induced potential, % of the control, left hemisphere ([1]; hypodermally 5 mg/kg): 270% | Change of amplitude of induced potential, % of the control, right hemisphere ([1]; hypodermally 5 mg/kg): 200% | Mean value of amplitude of induced potential, % ([1]; hypodermally 5 mg/kg): 235% | asymmetry factor (in words) [2]: the asymmetry factor is also increased | choice of the right side of the labyrinth (in words) [3]: statistically markedly increased | Number of runs to the right, Series I ([3]; hypodermally 5 mg/kg): 10 | Number of runs to the right, Series II ([3]; hypodermally 5 mg/kg): 12 | Number of runs to the right, Series III ([3]; hypodermally 5 mg/kg): 14 | Number of runs to the right, Series I ([3]; hypodermally 10 mg/kg): 9 | Number of runs to the right, Series II ([3]; hypodermally 10 mg/kg): 14 | Number of runs to the right, Series III ([3]; hypodermally 10 mg/kg): 15 | efficiency versus comparison preparations (in words) ([4]; mice): more efficient than pyracetam, 4-aminopyridine, physostigmine and calcium homopantothenate | retention of the acquired knowledge (in words) ([4]; mice, 1, 3 and 10 mg/kg, after 24 hours): improves retention of the acquired knowledge | learning process (in words) ([4]; mice, 1, 3 and 10 mg/kg, first day of teaching): facilitates the learning process | % of avoidance reactions, group I [4, 6]: 22% | % of avoidance reactions, group II [4, 6]: 40% | % of avoidance reactions, group III [4, 6]: 52% | % of avoidance reactions, group IV [4, 6]: 60% | % of avoidance reactions, group V [4, 6]: 70% | % of avoidance reactions, group VI [4, 6]: 74% | % of avoidance reactions, group I [4, 7]: 70% | % of avoidance reactions, group II [4, 7]: 88% | % of avoidance reactions, group III [4, 7]: 90% | % of avoidance reactions, group IV [4, 7]: 90% | % of avoidance reactions, group V [4, 7]: 91% | % of avoidance reactions, group VI [4, 7]: 90% | % of avoidance reactions, group I [4, 8]: 32% | % of avoidance reactions, group II [4, 8]: 43% | % of avoidance reactions, group III [4, 8]: 50% | % of avoidance reactions, group IV [4, 8]: 61% | % of avoidance reactions, group V [4, 8]: 67% | % of avoidance reactions, group VI [4, 8]: 65% | % of avoidance reactions, group I [4, 9]: 66% | % of avoidance reactions, group II [4, 9]: 90% | % of avoidance reactions, group III [4, 9]: 88% | % of avoidance reactions, group IV [4, 9]: 87% | % of avoidance reactions, group V [4, 9]: 86% | % of avoidance reactions, group VI [4, 9]: 86% | % of avoidance reactions, group I [4, 10]: 28% | % of avoidance reactions, group II [4, 10]: 20% | % of avoidance reactions, group III [4, 10]: 25% | % of avoidance reactions, group IV [4, 10]: 40% | % of avoidance reactions, group V [4, 10]: 44% | % of avoidance reactions, group VI [4, 10]: 46% | % of avoidance reactions, group I [4, 11]: 61% | % of avoidance reactions, group II [4, 11]: 75% | % of avoidance reactions, group III [4, 11]: 78% | % of avoidance reactions, group IV [4, 11]: 77% | % of avoidance reactions, group V [4, 11]: 76% | % of avoidance reactions, group VI [4, 11]: 81% | % of avoidance reactions, group I [4, 12]: 27% | % of avoidance reactions, group II [4, 12]: 38% | % of avoidance reactions, group III [4, 12]: 59% | % of avoidance reactions, group IV [4, 12]: 65% | % of avoidance reactions, group V [4, 12]: 68% | % of avoidance reactions, group VI [4, 12]: 72% | % of avoidance reactions, group I [4, 13]: 79% | % of avoidance reactions, group II [4, 13]: 84% | % of avoidance reactions, group III [4, 13]: 82% | % of avoidance reactions, group IV [4, 13]: 83% | % of avoidance reactions, group V [4, 13]: 80% | % of avoidance reactions, group VI [4, 13]: 82% | % of avoidance reactions, group I ([4]; mice, per os 1 mg/kg, 1st day): 27% | % of avoidance reactions, group II ([4]; mice, per os 1 mg/kg, 1st day): 43% | % of avoidance reactions, group III ([4]; mice, per os 1 mg/kg, 1st day): 70% | % of avoidance reactions, group IV ([4]; mice, per os 1 mg/kg, 1st day): 80% | % of avoidance reactions, group V ([4]; mice, per os 1 mg/kg, 1st day): 80% | % of avoidance reactions, group VI ([4]; mice, per os 1 mg/kg, 1st day): 82% | % of avoidance reactions, group I [4, 14]: 80% | % of avoidance reactions, group II [4, 14]: 90% | % of avoidance reactions, group III [4, 14]: 88% | % of avoidance reactions, group IV [4, 14]: 87% | % of avoidance reactions, group V [4, 14]: 86% | % of avoidance reactions, group VI [4, 14]: 90% | % of avoidance reactions, group I ([4]; mice, per os 3 mg/kg, 1st day): 18% | % of avoidance reactions, group II ([4]; mice, per os 3 mg/kg, 1st day): 27% | % of avoidance reactions, group III ([4]; mice, per os 3 mg/kg, 1st day): 35% | % of avoidance reactions, group IV ([4]; mice, per os 3 mg/kg, 1st day): 44% | % of avoidance reactions, group V ([4]; mice, per os 3 mg/kg, 1st day): 51% | % of avoidance reactions, group VI ([4]; mice, per os 3 mg/kg, 1st day): 50% | % of avoidance reactions, group I [4, 15]: 51% | % of avoidance reactions, group II [4, 15]: 76% | % of avoidance reactions, group III [4, 15]: 75% | % of avoidance reactions, group IV [4, 15]: 77% | % of avoidance reactions, group V [4, 15]: 79% | % of avoidance reactions, group VI [4, 15]: 80% | memory stimulation, per os as compared to subcutaneous administration ([4]; mice, per os vs subcutaneous): the same or even better results of memory stimulation | LD50 (mice): 44 mg/kg | chronic toxicity (dogs): no toxic effect | carcinogenic effect [5]: neither provides a carcinogenic, mutagenic, teratogenic or embryotoxic effect | embryotoxic effect [5]: neither provides a carcinogenic, mutagenic, teratogenic or embryotoxic effect | mutagenic effect [5]: neither provides a carcinogenic, mutagenic, teratogenic or embryotoxic effect | teratogenic effect [5]: neither provides a carcinogenic, mutagenic, teratogenic or embryotoxic effect
